These results are taken from US11299543B2, “Use of an anti-PD-1 antibody in combination with an anti-CD30 antibody in cancer treatment” (Bristol-Myers Squibb Company, priority 2016, dated 2022).

Entries after “also recorded” stand apart in the source; their conditions may differ. *1 amine or outer side, *2 acyl side, *3 side chain or, on linkers, in order; H or OH if unused. Where a SMILES comes first, the peptide text is derived from it. [ ]: non-standard residue; d: D form. The star is where a group is joined. Dolaproine = CO[C@@H]([C@@H]1CCCN1)[C@@H](C)C(=O)O; Hexanoyl(6-maleimido) = O=C1C=CC(=O)N1CCCCCC(=O)*; Dil = CC[C@H](C)[C@H](NC)[C@@H](CC(=O)O)OC; PABC = O=C(OCc1ccc(N[*:1])cc1)[*:2]; X1 = C[C@@H](N*)[C@@H](O)c1ccccc1; Cit = NC(=O)NCCC[C@H](N)C(=O)O; NMeV = CN[C@H](C(=O)O)C(C)C

The subject of series [1] is wild-type A20 cells. Kind of series: immunization with drug-killed A20^hcD30 cells plus anti-PD-1, A20 challenge. The series is classed as in vivo, Balb/c mice. The conditions noted are these: anti-PD-1 1 mg/kg i.v. days 6, 9, 14, 17. As to the method:
Balb/c mice were immunized with BV- or MMAE-killed A20^hcD30 cells as described above. 14 days after initial immunization, mice were subcutaneously implanted with 5×10^6 wild-type A20 cells. Anti-murine PD-1 (1 mg/kg, BioLegend) was administered intravenously on days 6, 9, 14, and 17 after A20 tumor challenge.

In series [2] the test system is wild-type A20 cells. Kind of series: immunization with drug-killed A20^hcD30 cells, then wild-type A20 challenge. Particulars: mice immunized with drug-killed A20^hcD30 cells; for tumor growth: 5×10^6 wild-type A20 cells s.c. The series is classed as in vivo, Balb/c mice. Here is the method: A20 mouse lymphoma cells were transfected with plasmid constructs encoding human TNFRSF8 (NM_001243.4) and sgRNA/Cas9 for control under the endogenous promoter of murine Tnfrsf8. Fluorescence activated cell sorting (FACS) yielded a clonal population of A20 cells that stably expressed human CD30, to be referenced as A20^hcD30, in order to be susceptible to brentuximab vedotin treatment.
A20^hcD30 cells were cultured in RPMI 1640 with 10% FBS, 10 mM HEPES, 1 mM sodium pyruvate, penicillin (100 U/ml), and streptomycin (100 μg/ml). A20^hcD30 cells were treated with 1 μg/ml BV or 100 nM mc-vc-MMAE for 4 days. In order to prepare dying cells for immunization, treated A20^hcD30 cells were overlaid atop Histopaque, and centrifuged at 2000 g for 30 minutes. Dead and dying cells were pelleted underneath the Histopaque layer, and viability was assessed to be <20% live cells by trypan blue exclusion. Flash-frozen A20^hcD30 cells were prepared by submerging cells in liquid nitrogen for 10 seconds, followed by immersion in 37° C. water until completely thawed. The liquid nitrogen freeze-thaw process was repeated 5 times. Dead and dying A20^hcD30 cells were resuspended in PBS and 2×10^6 cells were injected into the peritoneum of immune-competent Balb/c mice. 7 days later, mice received a second immunization with dead and dying cells prepared in the same manner.
14 days after initial immunization, mice were subcutaneously implanted with 5×10^6 wild-type A20 cells and monitored for tumor growth. […] As these effects occurred in the absence of any administered therapeutic, the presence of cells killed by BV or MMAE were sufficient to generate long-lasting protective immune memory against subsequent A20 lymphoma challenge.

Series [3] relates to CD30+ cutaneous T-cell lymphoma (CTCL). Particulars: patients treated with BV; cited from earlier work.
Series [4] relates to peripheral blood T cell subsets. Kind of series: phase 1/2 study NCT02572167, peripheral blood immunophenotyping. The series is classed as in vivo, human. The text has this:
FIGS. 7A-7C show peripheral blood immunophenotyping. T helper subsets, such as Tregs, (FIG. 7A), activated CD4^+ T cells (FIG. 7B), and proliferating CD4^+ T cells (FIG. 7C), which were reduced after single agent BV dosing, expanded after BV and nivolumab combination dosing.
(§1) A phase 1/2 study (NCT02572167) is ongoing to assess the safety profile and antitumor activity of BV administered in combination with nivolumab in patients with relapsed or refractory Hodgkin lymphoma (HL). Patients will be treated for up to four 21-day cycles with BV 1.8 mg/kg and nivolumab 3 mg/kg. Patients will be administered 1.8 mg/kg BV on Cycle 1 Day 1, and 3 mg/kg nivolumab on Cycle 1 Day 8. For cycles 2 through 4, BV and nivolumab will be administered on Day 1 of each cycle at the same doses, e.g., 1.8 mg/kg BV and 3 mg/kg nivolumab. Both BV and nivolumab will be administered by IV injection. After completion of the Cycle 4 response assessment (EOT), patients will be eligible to undergo ASCT. Responses were assessed using the 2014 Lugano classification (Cheson et al., J Clin Oncol 2014; 32(27):3059-68).

The next series relates to TARC, IP10, IL-18, IFNγ. Kind of series: phase 1/2 study NCT02572167, serum cytokine and chemokine levels. The series is classed as in vivo, human. Here is the method: FIGS. 6A-6D show priming of the immune system of patients treated with brentuximab vedotin (BV) in combination with nivolumab.
as §1

For series [5], the system named is CD30+ relapsed, refractory DLBCL. The conditions noted are these: patients treated with BV; cited from earlier work.
Series [6] has as its system wild-type A20 cells. Kind of series: T cell transfer from immunized mice into A20 tumor-bearing NSG mice. Format: in vivo. As to the method:
Immune-competent Balb/c mice were immunized with BV-killed or flash-frozen-killed A20^hcD30 cells as previously described. 16 weeks after initial immunization, spleens were harvested from immunized mice or naïve Balb/c mice, and manually homogenized. Splenic homogenates were combined from 4 mice per immunization, and CD3^+ T cells were isolated using EasySep Mouse T cell Enrichment Kit (Stem Cell Technologies). 1×10^6 CD3+ T cells were administered intravenously into A20 tumor-bearing mice.
4×10^6 wild-type A20 cells were subcutaneously implanted into immunodeficient NOD/SCID/γ-chain-deficient (NSG) mice. 5 days after implant, mice harboring tumors˜100 mm^3 were randomized, and received 1×10^6T cells from mice as described above.

In series [7] the test system is CD30+ relapsed, refractory peripheral T-cell lymphoma (PTCL). The conditions noted are these: patients treated with BV; cited from earlier work.
The test system of series [8] is LCL tumors. Kind of series: immune-mediated tumor clearance in the humanized LCL tumor model. The series is classed as in vivo, NSG mice. As to the method: Epstein Barr virus (EBV) transformed lymphoblastoid cell lines (LCL) were implanted subcutaneously into NSG mice. When LCL tumors averaged 250 mm^3, mice received a single suboptimal dose of BV or control hIgG-MMAE (1 mg/kg, i.p). Three days following dosing, 2×10^6 autologous PBMC were adoptively transferred to mice via tail vein injection. Mice received two doses of nivolumab (10 mg/kg, i.p.) 2 and 7 days after adoptive transfer of PBMC. […] The significance of these differences is reflected in a comparison of mean tumor volumes at day 50, during active tumor clearance (FIG. 15B). Taken together, results obtained from this humanized model support the conclusion that in addition to direct tumor cell killing, BV drives an inflammatory response that enhances immune-mediated cellular cytotoxicity and pairs well with nivolumab.

In series [9] the test system is LCL tumors. Kind of series: T cell and NK cell infiltration into autologous LCL tumors, humanized mouse model. The series is classed as in vivo, NSG mice. Particulars: single suboptimal dose 1 mg/kg i.p., autologous PBMC transferred. Here is the method: Epstein Barr virus (EBV) transformed lymphoblastoid cell Lines (LCL) were implanted subcutaneously into NSG mice. When LCL tumor volumes reached 250 mm^3, mice received a single suboptimal dose of BV or control hIgG-MMAE (1 mg/kg, i.p). Three days following dosing, 2.0×10^6 autologous peripheral blood mononuclear cells (PBMC) were adoptively transferred to mice via tail vein injection. Eleven days following transfer of PBMC, tumors were harvested, weighed, and manually dissociated through a 70 μm cell strainer. Following centrifugation, individual tumor cell pellets were resuspended in 4 ml of RPMI+10% FCS, and 200 ul of the cell suspension was used for staining and analysis by flow cytometry (FACS). Tumor cell suspensions were stained with Zombie Aqua Viability Dye (Biolegend) followed by staining with fluorescently labeled antibodies targeting human CD19, CD2, CD8, CD4, CD56, human CD45, PD-L1, PD-1, and murine CD45.1 (1:50 dilution, Biolegend) in staining buffer (SB: PBS, 2% FCS, 1% NRS, 0.05% NaN3) at 4° C. for 30 minutes. Cells were washed and resuspended in 120 μl of SB for plate-based FACS using an Attune NXT flow cytometer. All events were collected from 80 μl of sample, and FACS-measured cell concentrations were used to calculate numbers of infiltrating immune cells. CD8^+ T cells were identified as viability dye^neg, hCD45^+, mCD45.1^−, CD2^+, CD8^+ cells. […]

The test system of another series is CD30^+ cell lines. Particulars: in vitro; cited from earlier work.
The test system of series [10] is xenograft models of Hodgkin disease. The conditions noted are these: SCID mouse xenograft; cited from earlier work.
The conditions of series [11]: monotherapy, every two weeks; MTD not reached; cited from earlier work.
A further series deals with T1, PD-1 (Homo sapiens, UniProt Q15116).
T1 construct: Receptor-occupancy data from 15 subjects who received 0.3 mg/kg to 10 mg/kg dosing with nivolumab indicate that PD-1 occupancy appears to be dose-independent; host or cells: endogenous receptor in dosed subjects
T1 sequence (Q15116 25-288): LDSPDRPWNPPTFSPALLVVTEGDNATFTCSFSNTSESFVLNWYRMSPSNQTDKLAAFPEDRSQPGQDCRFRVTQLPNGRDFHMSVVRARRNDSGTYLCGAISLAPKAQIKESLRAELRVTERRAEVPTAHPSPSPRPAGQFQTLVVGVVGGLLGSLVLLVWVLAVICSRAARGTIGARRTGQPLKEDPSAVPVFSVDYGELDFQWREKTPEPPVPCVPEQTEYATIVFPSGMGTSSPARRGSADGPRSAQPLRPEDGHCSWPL
The conditions noted are these: 15 subjects, 0.3 mg/kg to 10 mg/kg nivolumab, across all doses; cited from earlier work.

Take `CC[C@H](C)[C@@H]([C@@H](CC(=O)N1CCC[C@H]1[C@H](OC)[C@@H](C)C(=O)N[C@H](C)[C@@H](O)c1ccccc1)OC)N(C)C(=O)[C@@H](NC(=O)[C@H](C(C)C)N(C)C(=O)OCc1ccc(NC(=O)[C@H](CCCNC(N)=O)NC(=O)[C@@H](NC(=O)CCCCCN2C(=O)C=CC2=O)C(C)C)cc1)C(C)C` [mc-vc-MMAE] ({Hexanoyl(6-maleimido)}-V[Cit][PABC][NMeV]V[Dil][Dolaproine]-X1): the protective anti-tumor immunity result with wild-type A20 cells [1] is “conferred protective anti-tumor immunity”. In the series with wild-type A20 cells [2], the “survival of tumor-bearing mice” value is “increased survival” and the tumor growth entry is on record as “delayed tumor growth”.
Turning to “BV: CD30-directed antibody-drug conjugate: chimeric anti-CD30 antibody cAC10, MMAE and a protease-cleavable linker”, the ORR in series [3] is on record as 73%. Further, in series [4] (Cycle 1 Day 8, preliminary), the “percentage of CD4+ T regulatory (Treg) cells” value is given as “decrease” and the “proliferating CD8+ T cells” value was “no effect”. Also, in [4] (peripheral blood), the “T helper subsets, such as Tregs” value is on record as “initial reduction; also recorded: reduced”; the “activated CD4+ T cells” value is “initial reduction; also recorded: reduced”; the “proliferating CD4+ T cells” value is listed as “initial reduction; also recorded: reduced”. In addition, the “pro-inflammatory cytokine and chemokine levels” value with TARC, IP10, IL-18, IFNγ (after BV dosing, following concurrent BV and nivolumab) was “increase”. Further, the “Pro-inflammatory cytokine IL-18 levels” value with TARC, IP10, IL-18, IFNγ (after C1D1 BV dosing, with BV and nivolumab dosing) was “significantly higher”. Moreover, the “T-cell chemokine IP10 levels” value in the series with TARC, IP10, IL-18, IFNγ (after C1D1 BV, following C1D8 nivolumab dosing) was “significantly higher”. The “Serum TARC levels” value with TARC, IP10, IL-18, IFNγ (compared to baseline) is recorded as “significantly lower”. Moreover, in the series on wild-type A20 cells [1], the protective anti-tumor immunity entry is on record as “conferred protective anti-tumor immunity”. Moreover, in series [5], the ORR is given as 44%. Moreover, the tumor growth entry with wild-type A20 cells [6] (NSG mice given 1×10^6 T cells from mice immunized with BV-killed cells) was “slowed tumor growth”. Also, in the series with wild-type A20 cells [6] (NSG mice given T cells from mice immunized with BV-killed cells), the “CD8 T cells within the tumor” value is “increased CD8 T cells within the tumor”. In the series on wild-type A20 cells [2], the “survival of tumor-bearing mice” value is “increased survival” and the tumor growth result is reported as “delayed tumor growth”. Further, the ORR in series [7] is given as 41%. The tumor rejection entry with LCL tumors [8] (suboptimal dose 1 mg/kg i.p. without the addition of PBMC) was “did not reject tumors”. For the same compound, the immune-mediated tumor clearance result in the series on LCL tumors [8] (with autologous PBMC, BV 1 mg/kg i.p., nivolumab 10 mg/kg i.p.) is “enhanced immune-mediated tumor clearance”. Also, the “intratumoral accumulation of human cytotoxic cells” value in the series on LCL tumors [9] was “enhanced intratumoral accumulation of human cytotoxic cells”.
On to “cAC10: chimeric IgG1 monoclonal antibody that specifically binds CD30”, for which the “growth of CD30+ cell lines” value in the series on CD30^+ cell lines is given as “induces growth arrest”. The antitumor activity result in series [10] is on record as “pronounced antitumor activity”.
Take nivolumab: in series [4] (Cycle 1, one week after nivolumab dosing (2 weeks after BV dosing)), the T cells entry is “robust expansion”. The “percentage of CD4+ Th1 cells compared to baseline” value in series [4] (most patients (5 of 6, 83%)) is reported as “no significant change”. The “maximum tolerated dose (MTD)” value in series [11] is more than 10 mg/kg. At PD-1, the “mean occupancy rate (PD-1)” value was 85% and the “mean plateau occupancy (PD-1)” value is 72%.
